“And” between values parts separate entries of the source, which are not always exact repeats. Equal entries are not always repeated. Numbers after ± are expanded uncertainties.
Experiments:
[1] = excess molar enthalpy (molar enthalpy of mixing); xn = mol fraction of the nth substance listed
[2] = 298.15 K; 101.33 kPa; Liquid; Vibrating tube method

CC1CCCCC1 [methylcyclohexane] + CN(C)C=O
excess molar enthalpy [kJ/mol], [1], 101.33 kPa, Liquid
Conditions | 298.15 K | 313.15 K
x1 = 0.031 | 0.248 ± 0.0076 | 0.242 ± 0.0077
x1 = 0.0633 | 0.434 ± 0.012 | –
x1 = 0.0634 | – | 0.476 ± 0.013
x1 = 0.0969 | 0.679 ± 0.018 | –
x1 = 0.097 | – | 0.697 ± 0.018
x1 = 0.132 | 0.875 ± 0.022 | –
x1 = 0.1321 | – | 0.901 ± 0.023
x1 = 0.1687 | – | 1.09 ± 0.028
x1 = 0.2069 | – | 1.25 ± 0.031
x1 = 0.9204 | – | 0.763 ± 0.02
x1 = 0.924 | 0.713 ± 0.018 | –
x1 = 0.9274 | 0.683 ± 0.018 | –
x1 = 0.9305 | 0.666 ± 0.017 | –
x1 = 0.9383 | 0.614 ± 0.016 | 0.644 ± 0.017
x1 = 0.9552 | – | 0.495 ± 0.014

[1]
Conditions | excess molar enthalpy
298.15 K, Liquid mixture 1, x1 = 0.1685 | 0.956 ± 0.024 kJ/mol
298.15 K, Liquid mixture 1, x1 = 0.2068 | 0.977 ± 0.025 kJ/mol
298.15 K, Liquid mixture 1, x1 = 0.2467 | 0.976 ± 0.025 kJ/mol
298.15 K, Liquid mixture 1, x1 = 0.2893 | 0.975 ± 0.025 kJ/mol
298.15 K, Liquid mixture 1, x1 = 0.3322 | 0.965 ± 0.025 kJ/mol
298.15 K, Liquid mixture 1, x1 = 0.3781 | 0.952 ± 0.024 kJ/mol
298.15 K, Liquid mixture 1, x1 = 0.3782 | 0.945 ± 0.024 kJ/mol
298.15 K, Liquid mixture 1, x1 = 0.4264 | 0.937 ± 0.024 kJ/mol
298.15 K, Liquid mixture 1, x1 = 0.4771 | 0.923 ± 0.024 kJ/mol
298.15 K, Liquid mixture 1, x1 = 0.5304 | 0.911 ± 0.023 kJ/mol
298.15 K, Liquid mixture 1, x1 = 0.5867 | 0.899 ± 0.023 kJ/mol
298.15 K, Liquid mixture 1, x1 = 0.646 | 0.885 ± 0.022 kJ/mol
298.15 K, Liquid mixture 1, x1 = 0.7087 | 0.871 ± 0.022 kJ/mol
298.15 K, Liquid mixture 1, x1 = 0.7751 | 0.852 ± 0.022 kJ/mol
298.15 K, Liquid mixture 1, x1 = 0.8455 | 0.833 ± 0.021 kJ/mol
298.15 K, Liquid mixture 1, x1 = 0.9204 | 0.75 ± 0.019 kJ/mol
313.15 K, Liquid mixture 1, x1 = 0.2469 | 1.32 ± 0.033 kJ/mol
313.15 K, Liquid mixture 1, x1 = 0.2887 | 1.34 kJ/mol and 1.32 kJ/mol
313.15 K, Liquid mixture 1, x1 = 0.3325 | 1.33 ± 0.033 kJ/mol
313.15 K, Liquid mixture 1, x1 = 0.3784 | 1.32 ± 0.033 kJ/mol
313.15 K, Liquid mixture 1, x1 = 0.4267 | 1.31 ± 0.033 kJ/mol
313.15 K, Liquid mixture 1, x1 = 0.4773 | 1.31 ± 0.033 kJ/mol
313.15 K, Liquid mixture 1, x1 = 0.5307 | 1.29 ± 0.032 kJ/mol
313.15 K, Liquid mixture 1, x1 = 0.5869 | 1.28 ± 0.032 kJ/mol
313.15 K, Liquid mixture 1, x1 = 0.6462 | 1.27 ± 0.032 kJ/mol
313.15 K, Liquid mixture 1, x1 = 0.7089 | 1.26 ± 0.032 kJ/mol
313.15 K, Liquid mixture 1, x1 = 0.7753 | 1.24 ± 0.031 kJ/mol
313.15 K, Liquid mixture 1, x1 = 0.8457 | 1.16 ± 0.029 kJ/mol

CC1CCCCC1 [methylcyclohexane]
Conditions | mass density
[2] | 764.96 ± 0.42 kg/m3 and 764.97 ± 0.18 kg/m3

CN(C)C=O [dimethylformamide]
Conditions | mass density
[2] | 943.81 ± 0.13 kg/m3 and 943.88 ± 0.1 kg/m3

CO [methanol]
Conditions | mass density [kg/m3]
[2] | 786.55 ± 0.43

CC1CCCCC1 [methylcyclohexane] + CO
excess molar enthalpy [kJ/mol], [1], 101.33 kPa, Liquid
Conditions | 298.15 K | 313.15 K
x1 = 0.0166 | 0.0773 ± 0.0036 | 0.0837 ± 0.0038
x1 = 0.0343 | – | 0.159 ± 0.0053
x1 = 0.0345 | 0.149 ± 0.005 | –
x1 = 0.0534 | – | 0.234 ± 0.0069
x1 = 0.0537 | 0.217 ± 0.0065 | –
x1 = 0.0741 | – | 0.301 ± 0.0084
x1 = 0.0743 | 0.276 ± 0.0078 | –
x1 = 0.0964 | – | 0.363 ± 0.0099
x1 = 0.0967 | 0.332 ± 0.0091 | –
x1 = 0.1206 | – | 0.422 ± 0.011
x1 = 0.121 | 0.381 ± 0.01 | –
x1 = 0.147 | – | 0.475 ± 0.013
x1 = 0.1758 | – | 0.521 ± 0.014
x1 = 0.2075 | – | 0.559 ± 0.015
x1 = 0.2411 | – | 0.583 ± 0.015
x1 = 0.2424 | – | 0.589 ± 0.015
x1 = 0.7423 | – | 0.67 ± 0.017
x1 = 0.8057 | – | 0.637 ± 0.017
x1 = 0.8588 | – | 0.577 ± 0.015
x1 = 0.859 | 0.422 ± 0.011 | –
x1 = 0.9055 | – | 0.513 ± 0.013
x1 = 0.9056 | 0.371 ± 0.01 | –
x1 = 0.941 | – | 0.452 ± 0.012

[1]
Conditions | excess molar enthalpy [kJ/mol]
298.15 K, Liquid mixture 1, x1 = 0.1475 | 0.417 ± 0.011
298.15 K, Liquid mixture 1, x1 = 0.1764 | 0.431 ± 0.011
298.15 K, Liquid mixture 1, x1 = 0.2082 | 0.435 ± 0.011
298.15 K, Liquid mixture 1, x1 = 0.2411 | 0.438 ± 0.012
298.15 K, Liquid mixture 1, x1 = 0.2432 | 0.438 ± 0.012
298.15 K, Liquid mixture 1, x1 = 0.2819 | 0.441 ± 0.012
298.15 K, Liquid mixture 1, x1 = 0.3251 | 0.443 ± 0.012
298.15 K, Liquid mixture 1, x1 = 0.3736 | 0.445 ± 0.012
298.15 K, Liquid mixture 1, x1 = 0.4283 | 0.45 ± 0.012
298.15 K, Liquid mixture 1, x1 = 0.4907 | 0.452 ± 0.012
298.15 K, Liquid mixture 1, x1 = 0.5623 | 0.453 ± 0.012
298.15 K, Liquid mixture 1, x1 = 0.6453 | 0.457 ± 0.012
298.15 K, Liquid mixture 1, x1 = 0.7429 | 0.463 ± 0.012
298.15 K, Liquid mixture 1, x1 = 0.8061 | 0.456 ± 0.012
313.15 K, Liquid mixture 1, x1 = 0.2812 | 0.606 ± 0.016
313.15 K, Liquid mixture 1, x1 = 0.3244 | 0.616 ± 0.016
313.15 K, Liquid mixture 1, x1 = 0.3728 | 0.629 ± 0.016
313.15 K, Liquid mixture 1, x1 = 0.4275 | 0.643 ± 0.017
313.15 K, Liquid mixture 1, x1 = 0.4898 | 0.656 ± 0.017
313.15 K, Liquid mixture 1, x1 = 0.5615 | 0.668 ± 0.017
313.15 K, Liquid mixture 1, x1 = 0.6446 | 0.686 ± 0.018

— the NIST ThermoML archive (doi:10.1021/je020135f)
